Experimental data from US20180265515A1 (Genentech, Inc., priority 2015, published 2018).

Legend:
[1] = target: T1, isolated recombinant JAK2 kinase domain (Homo sapiens, UniProt O60674); experiment: JAK2 enzyme assay (Caliper LabChip, Ki); format: biochemical; conditions: 25 μM ATP
T1 construct: The activity of the isolated recombinant JAK1 and JAK2 kinase domain was measured
How it was run: (§1)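 Caliper LabChip read-out: fraction of FAM-labeled JAK3-derived peptide converted to phosphopeptide by isolated JAK1/JAK2 kinase domain. Reaction 30 min, 22° C; stopped with EDTA, 50 mM final. Ki via Morrison tight-binding model, Ki=Ki,app/(1+[ATP]/Km,app).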

[2] = tested on: JAK1-dependent STAT6 phosphorylation downstream of IL-13 stimulation in BEAS-2B human bronchial epithelial cells; experiment: JAK1 pathway assay in BEAS-2B cells (IL-13 stimulated STAT6 phosphorylation, MSD); format: cell-based; conditions: read-out: P-STAT6 BEAS2B + IL13 IC50
How it was run: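 BEAS-2B human bronchial epithelial cells, plated the day before in complete growth medium, were preincubated with compound for 1 hr at 37° C (0.2% DMSO final), then stimulated with IL-13 at its EC90 for 15 min. STAT6 phosphorylation in lysates was read by MSD; EC50 was taken as 50% inhibition versus DMSO control.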

[3] = target: T2, isolated recombinant JAK1 kinase domain (Homo sapiens, UniProt P23458); experiment: JAK1 enzyme assay (Caliper LabChip, Ki); format: biochemical; conditions: recombinant JAK1 kinase domain, 25 μM ATP
T2 construct: The activity of the isolated recombinant JAK1 and JAK2 kinase domain was measured
How it was run: as §1

T1 sequence (O60674 849-1124 limits assumed): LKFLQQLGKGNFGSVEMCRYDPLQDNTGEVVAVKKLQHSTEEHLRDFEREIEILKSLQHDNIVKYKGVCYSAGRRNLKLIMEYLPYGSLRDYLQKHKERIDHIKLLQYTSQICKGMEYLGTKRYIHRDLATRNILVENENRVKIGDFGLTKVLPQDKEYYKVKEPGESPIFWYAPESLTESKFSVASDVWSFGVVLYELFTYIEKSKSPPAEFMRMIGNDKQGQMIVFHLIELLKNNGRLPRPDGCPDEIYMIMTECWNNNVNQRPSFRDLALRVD
T2 sequence (P23458 875-1153 limits assumed): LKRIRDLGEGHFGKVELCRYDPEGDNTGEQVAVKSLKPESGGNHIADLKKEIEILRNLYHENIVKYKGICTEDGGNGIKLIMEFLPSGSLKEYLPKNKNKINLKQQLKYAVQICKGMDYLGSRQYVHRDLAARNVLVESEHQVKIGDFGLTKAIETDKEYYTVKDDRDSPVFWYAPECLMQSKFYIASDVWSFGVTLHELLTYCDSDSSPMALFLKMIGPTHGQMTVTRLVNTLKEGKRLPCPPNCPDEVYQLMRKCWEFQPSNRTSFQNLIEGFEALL

Row | Ki [1] | Ki [3] | Structure (SMILES) | IC50 [2]
1 | 0.85 nM | 0.41 nM | CC(C)Sc1ccc(OC(F)F)c(-c2nn(CC(=O)N3CCN(CCOCCO)CC3)cc2NC(=O)c2cnn3cccnc23)c1 [Example 122, N-[3-[2-(difluoromethoxy)-5-isopropylsulfanyl-phenyl]-1-[2-[4-[2-(2-hydroxyethoxy)ethyl]piperazin-1-yl]-2-oxo-ethyl]pyrazol-4-yl]pyrazolo[1,5-a]pyrimidine-3-carboxamide] | 42 nM
2 | 2 nM | 0.79 nM | CC(C)Sc1ccc(OC(F)F)c(-c2nn(CC(=O)N3CCC(N(C)CC4OCCO4)CC3)cc2NC(=O)c2cnn3cccnc23)c1 [Example 123, N-[3-[2-(difluoromethoxy)-5-isopropylsulfanyl-phenyl]-1-[2-[4-[1,3-dioxolan-2-ylmethyl(methyl)amino]-1-piperidyl]-2-oxo-ethyl]pyrazol-4-yl]pyrazolo[1,5-a]pyrimidine-3-carboxamide] | 38 nM
3 | 1.1 nM | 0.92 nM | CC(C)Sc1ccc(OC(F)F)c(-c2nn(CC(=O)N3CC4CCCNC4C3)cc2NC(=O)c2cnn3cccnc23)c1 (stereo not drawn) [Example 124, N-[1-[2-(1,2,3,4,4a,5,7,7a-octahydropyrrolo[3,4-b]pyridin-6-yl)-2-oxo-ethyl]-3-[2-(difluoromethoxy)-5-isopropylsulfanyl-phenyl]pyrazol-4-yl]pyrazolo[1,5-a]pyrimidine-3-carboxamide] | 59 nM
4 | 0.94 nM | 0.47 nM | CC(C)Sc1ccc(OC(F)F)c(-c2nn(CC(=O)N3CCN(C4CCOCC4)CC3)cc2NC(=O)c2cnn3cccnc23)c1 [Example 125, N-[3-[2-(difluoromethoxy)-5-isopropylsulfanyl-phenyl]-1-[2-oxo-2-(4-tetrahydropyran-4-ylpiperazin-1-yl)ethyl]pyrazol-4-yl]pyrazolo[1,5-a]pyrimidine-3-carboxamide] | 17 nM
5 | 0.84 nM | 0.37 nM | CC(C)Sc1ccc(OC(F)F)c(-c2nn(CC(=O)N3CCN(CCCO)CC3)cc2NC(=O)c2cnn3cccnc23)c1 [Example 126, N-[3-[2-(difluoromethoxy)-5-isopropylsulfanyl-phenyl]-1-[2-[4-(3-hydroxypropyl)piperazin-1-yl]-2-oxo-ethyl]pyrazol-4-yl]pyrazolo[1,5-a]pyrimidine-3-carboxamide] | 43 nM
6 | 0.97 nM | 0.48 nM | CC(C)Sc1ccc(OC(F)F)c(-c2nn(CC(=O)N3CCN(CC4(C)COC4)CC3)cc2NC(=O)c2cnn3cccnc23)c1 [Example 127, N-[3-[2-(difluoromethoxy)-5-isopropylsulfanyl-phenyl]-1-[2-[4-[(3-methyloxetan-3-yl)methyl]piperazin-1-yl]-2-oxo-ethyl]pyrazol-4-yl]pyrazolo[1,5-a]pyrimidine-3-carboxamide] | 35 nM
7 | 1.2 nM | 0.58 nM | CC(C)Sc1ccc(OC(F)F)c(-c2nn(CC(=O)N3CCN(C4CCOC4)CC3)cc2NC(=O)c2cnn3cccnc23)c1 (stereo not drawn) [Example 128, N-[3-[2-(difluoromethoxy)-5-isopropylsulfanyl-phenyl]-1-[2-oxo-2-(4-tetrahydrofuran-3-ylpiperazin-1-yl)ethyl]pyrazol-4-yl]pyrazolo[1,5-a]pyrimidine-3-carboxamide] | 47 nM
8 | 0.99 nM | 0.42 nM | CC(C)Sc1ccc(OC(F)F)c(-c2nn(CC(=O)N3CCC(N4CC(C#N)C4)CC3)cc2NC(=O)c2cnn3cccnc23)c1 [Example 129, N-(1-[2-[4-(3-cyanoazetidin-1-yl)piperidin-1-yl]-2-oxoethyl]-3-[2-(difluoromethoxy)-5-(propan-2-ylsulfanyl)phenyl]-1H-pyrazol-4-yl)pyrazolo[1,5-a]pyrimidine-3-carboxamide] | 26 nM
9 | 0.8 nM | 0.41 nM | CC(C)Sc1ccc(OC(F)F)c(-c2nn(CC(=O)N3CCN(CCO)CC3)cc2NC(=O)c2cnn3cccnc23)c1 [Example 131, N-[3-[2-(difluoromethoxy)-5-isopropylsulfanyl-phenyl]-1-[2-[4-(2-hydroxyethyl)piperazin-1-yl]-2-oxo-ethyl]pyrazol-4-yl]pyrazolo[1,5-a]pyrimidine-3-carboxamide] | 30 nM
10 | 1.2 nM | 0.67 nM | CC(C)Sc1ccc(OC(F)F)c(-c2nn(CC(=O)N3CCC(C)(N4CCOCC4)CC3)cc2NC(=O)c2cnn3cccnc23)c1 [Example 132, N-[3-[2-(difluoromethoxy)-5-isopropylsulfanyl-phenyl]-1-[2-(4-methyl-4-morpholino-1-piperidyl)-2-oxo-ethyl]pyrazol-4-yl]pyrazolo[1,5-a]pyrimidine-3-carboxamide] | 36 nM
11 | 0.87 nM | 0.43 nM | CC(C)Sc1ccc(OC(F)F)c(-c2nn(CC(=O)N3CCN(CC4CCOCC4)CC3)cc2NC(=O)c2cnn3cccnc23)c1 [Example 135, N-[3-[2-(difluoromethoxy)-5-isopropylsulfanyl-phenyl]-1-[2-oxo-2-[4-(tetrahydropyran-4-ylmethyl)piperazin-1-yl]ethyl]pyrazol-4-yl]pyrazolo[1,5-a]pyrimidine-3-carboxamide] | 24 nM
12 | 1.2 nM | 0.49 nM | CC(C)Sc1ccc(OC(F)F)c(-c2nn(CC(=O)N3CCC(CN4CCOCC4)CC3)cc2NC(=O)c2cnn3cccnc23)c1 [Example 136, N-[3-[2-(difluoromethoxy)-5-isopropylsulfanyl-phenyl]-1-[2-[4-(morpholinomethyl)-1-piperidyl]-2-oxo-ethyl]pyrazol-4-yl]pyrazolo[1,5-a]pyrimidine-3-carboxamide] | 20 nM
13 | 1.5 nM | 0.5 nM | CC(C)Sc1ccc(OC(F)F)c(-c2nn(CC(=O)N3CCC(C(=O)N4CCN(C)CC4)CC3)cc2NC(=O)c2cnn3cccnc23)c1 [Example 137, N-[3-[2-(difluoromethoxy)-5-isopropylsulfanyl-phenyl]-1-[2-[4-(4-methylpiperazine-1-carbonyl)-1-piperidyl]-2-oxo-ethyl]pyrazol-4-yl]pyrazolo[1,5-a]pyrimidine-3-carboxamide] | 66 nM
14 | 0.17 nM | 0.22 nM | CC(C)Sc1ccc(OC(F)F)c(-c2nn(CC(=O)N3CCC(N4CC[S+]([O-])CC4)CC3)cc2NC(=O)c2cnn3cccnc23)c1 [Example 138, N-[3-[2-(difluoromethoxy)-5-isopropylsulfanyl-phenyl]-1-[2-oxo-2-[4-(1-oxo-1,4-thiazinan-4-yl)-1-piperidyl]ethyl]pyrazol-4-yl]pyrazolo[1,5-a]pyrimidine-3-carboxamide] | 250 nM
15 | 0.84 nM | 0.51 nM | CC(C)Sc1ccc(OC(F)F)c(-c2nn(CC(=O)N3CCC(N4CCn5cncc5C4)CC3)cc2NC(=O)c2cnn3cccnc23)c1 [Example 139, N-[3-[2-(difluoromethoxy)-5-isopropylsulfanyl-phenyl]-1-[2-[4-(6,8-dihydro-5H-imidazo[1,5-a]pyrazin-7-yl)-1-piperidyl]-2-oxo-ethyl]pyrazol-4-yl]pyrazolo[1,5-a]pyrimidine-3-carboxamide] | 140 nM
16 | 1.7 nM | 0.63 nM | CC(C)Sc1ccc(OC(F)F)c(-c2nn(CC(=O)N3CCN(CC4CCN(CC(=O)N(C)C)CC4)CC3)cc2NC(=O)c2cnn3cccnc23)c1 [Example 140, N-[3-[2-(difluoromethoxy)-5-isopropylsulfanyl-phenyl]-1-[2-[4-[[1-[2-(dimethylamino)-2-oxo-ethyl]-4-piperidyl]methyl]piperazin-1-yl]-2-oxo-ethyl]pyrazol-4-yl]pyrazolo[1,5-a]pyrimidine-3-carboxamide] | 51 nM
17 | 1.9 nM | 0.78 nM | CC(C)Sc1ccc(OC(F)F)c(-c2nn(CC(=O)N3CCN(CC4CCN(CC(=O)N5CCOCC5)CC4)CC3)cc2NC(=O)c2cnn3cccnc23)c1 [Example 141, N-[3-[2-(difluoromethoxy)-5-isopropylsulfanyl-phenyl]-1-[2-[4-[[1-(2-morpholino-2-oxo-ethyl)-4-piperidyl]methyl]piperazin-1-yl]-2-oxo-ethyl]pyrazol-4-yl]pyrazolo[1,5-a]pyrimidine-3-carboxamide] | 36 nM
18 | 2 nM | 0.88 nM | CC(C)Sc1ccc(OC(F)F)c(-c2nn(CC(=O)N3CCN(C4CCN(CC(=O)N(C)C)CC4)CC3)cc2NC(=O)c2cnn3cccnc23)c1 [Example 142, N-[3-[2-(difluoromethoxy)-5-isopropylsulfanyl-phenyl]-1-[2-[4-[1-[2-(dimethylamino)-2-oxo-ethyl]-4-piperidyl]piperazin-1-yl]-2-oxo-ethyl]pyrazol-4-yl]pyrazolo[1,5-a]pyrimidine-3-carboxamide] | 110 nM
19 | 2.5 nM | 0.92 nM | CC(C)Sc1ccc(OC(F)F)c(-c2nn(CC(=O)N3CCC(N4CCN(C5COC5)CC4)CC3)cc2NC(=O)c2cnn3cccnc23)c1 [Example 143] | 89 nM

Row | Structure (SMILES) | Ki [1] | Ki [3] | IC50 [2]
20 | CC(C)Sc1ccc(OC(F)F)c(-c2nn(CC(=O)N3CCC(N4CC5CC(C4)O5)CC3)cc2NC(=O)c2cnn3cccnc23)c1 [Example 130, N-[3-[2-(difluoromethoxy)-5-isopropylsulfanyl-phenyl]-1-[2-[4-(6-oxa-3-azabicyclo[3.1.1]heptan-3-yl)-1-piperidyl]-2-oxo-ethyl]pyrazol-4-yl]pyrazolo[1,5-a]pyrimidine-3-carboxamide] | 1 nM | 0.57 nM | 19 nM
